For data set [1], the system named is thrombus formation in mesenteric venules. The experiment in a line: Fluorescein sodium-mediated thrombus formation in mesenteric microvessels of mice. In kind it is in vivo. As to conditions: 20 mg/kg i.v., positive control, n = 6, mean ± SEM. The procedure: Male ICR mice (weighing 20–25 g and aged 5–6 weeks) were purchased from BioLasco (Taipei, Taiwan). The animal use protocol for this project was approved by the Affidavit of Approval of Animal Use Protocol–Taipei Medical University (LAC-2020–0074). All animal experiments were conducted in accordance with the Guide for the Care and Use of Laboratory Animals, Eighth Edition (2011).
The mice were anesthetized with an oxygen–air mixture containing 3% isoflurane at a gas flow rate of 1.5–2 L/min. A bolus dose (bolus volume: 20 μL) of compound 6 (0.3 mg/kg, 0.6 mg/kg, or 1.2 mg/kg), DMSO (solvent control; 1.1 g/kg), or aspirin (20 mg/kg; positive control) was intravenously administered through the tail vein before the administering sodium fluorescein (15 mg/kg). The small intestinal segments were placed on a transparent culture dish, and the mesenteric vessels were observed under a microscope. Venules (20–30 μm) were selected and irradiated with light (wavelength <520 nm) to induce endothelial damage, causing thrombus formation and subsequent vessel occlusion. The time required to occlude a microvessel was recorded ([Lin et al., 2013]). A formula for dose translation based on the […] was used to calculate the appropriate dose for use in the mice ([Reagan-Shaw et al., 2008]). [Reagan-Shaw et al. (2008)] reported that the animal dose should not be extrapolated to a human equivalent dose (HED) by a simple conversion based on body weight. […] The formula for dose translation based on BSA is as follows: HED (mg/kg) = Animal dose (mg/kg) multiply by Animal Km/Human Km. Mouse Km is 3 and Human Km is 37.
FIGURE 3 Effects of compound 6 on thrombosis and hemostasis in mice. Mice were treated with compound 6 (0.3, 0.6, or 1.2 mg/kg), DMSO (solvent control), or aspirin (20 mg/kg; positive control) via intravenous route for 10 min. (A) The microthrombus formation (arrows) in mesenteric venules. Scale bar = 30 μm. […] Each point on the plot indicates a mouse (n = 6). Data (A,B) are presented as means ± SEM (n = 6). *p < 0.05 and ***p < 0.001 compared with the DMSO group.

The target in a further data set is T1, recombinant human GPVI (Homo sapiens, UniProt Q9HCN6).
T1 sequence (Q9HCN6 21-267 limits assumed): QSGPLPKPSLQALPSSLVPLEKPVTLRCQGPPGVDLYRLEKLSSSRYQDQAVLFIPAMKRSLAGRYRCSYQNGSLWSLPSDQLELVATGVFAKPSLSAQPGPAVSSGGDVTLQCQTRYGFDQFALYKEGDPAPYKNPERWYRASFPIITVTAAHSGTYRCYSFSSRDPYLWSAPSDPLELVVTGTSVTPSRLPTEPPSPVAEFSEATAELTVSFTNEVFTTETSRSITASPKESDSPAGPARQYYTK
The data set is described as follows: Surface plasmon resonance binding assay (OpenSPR). As to conditions: his-tagged recombinant GPVI on NTA chip, compound at 0.1 and 1 μM; read-out: KD (equilibrium dissociation constant). The procedure: Surface plasmon resonance (SPR) analysis was performed using an OpenSPR instrument (Nicoya, Kitchener, Canada). A nitrilotriacetic acid (NTA) sensor chip was installed in the OpenSPR instrument. Running buffer (phosphate-buffered saline) was pumped at the maximum flow rate, and 80% isopropanol was injected to remove any bubbles. Subsequently, 200 μL of a 200 mM imidazole solution was injected to prime the sensor surface. After rinsing the chip with running buffer, 200 μL of a 40 mM NiCl2 solution was used to activate the NTA chip. After 5 min of interaction time, his-tagged recombinant GPVI proteins were bound to the NTA chip by perfusing the GPVI protein solution at a flow rate of 20 μL/min. Solutions of compound 5 or compound 6 (0.1 and 1 μM) were then injected. The equilibrium dissociation constant (KD) was determined using the OpenSPR system (Nicoya).
An SPR binding assay was performed. First, recombinant human GPVI was coated on the NTA sensor chip. Solutions of compound 5 and compound 6 (0.1 and 1 μM) were then perfused on the chip, and the KD was determined using the OpenSPR system (Nicoya Lifesciences).
FIGURE 7 Direct binding of compound 6 on GPVI. […] Equilibrium dissociation constant (KD) were determined using the OpenSPR system. […]
For orientation: In SPR one partner is held on a chip, and binding of the other changes the refractive index at the surface.

The subject of data set [2] is human platelet suspensions stimulated with collagen. Also on record: method as in Shih et al., 2021. As to conditions: human platelets; ref Shih et al., 2021; read-out: IC50, collagen-induced platelet aggregation; cited from earlier work.
The subject of data set [3] is human platelet suspensions stimulated with thrombin. Further details: method as in Shih et al., 2021. As to conditions: high concentrations; ref Shih et al., 2021; cited from earlier work.
The test system of data set [4] is human platelet suspensions stimulated with U46619. Further details: method as in Shih et al., 2021. The settings on record: high concentrations; ref Shih et al., 2021; cited from earlier work.
Data set [5] concerns thrombus formation in mesenteric venules. Further details: method as in Shih et al., 2021. The settings on record: mice, ref Shih et al., 2021, cited from earlier work.
The test system of data set [6] is tail bleeding (hemostasis). Further details: method as in Shih et al., 2021. The settings on record: ref Shih et al., 2021; cited from earlier work.

Each structure is given as a SMILES string. Like-named read-outs stand apart in the source and are kept apart here.

The values that follow come from paper PMC12234328, “A naphthalimide derivative exerts potent antiplatelet and antithrombotic activities without a bleeding tendency” (Frontiers in Pharmacology, 2025).

`CC(=O)Oc1ccccc1C(=O)O` [aspirin, reference compound] displayed an Occlusion time in data set [1] of 492.2 ± 31.9 s.

With `CN(C)CCN1C(=O)c2cccc3c(NCCNC(=O)c4ccccn4)ccc(c23)C1=O` [compound 5], the Kd (as a rule, the concentration at which binding is half-saturated) at recombinant human GPVI was found to be 0.3 µM. Besides, the IC50 (as a rule, the point on the concentration scale where inhibition reaches its midpoint) in data set [2] was 6.5 µM. Further, the “Effect on thrombin-induced platelet aggregation” value in data set [3] was “can block”. For the same molecule, the “Effect on U46619-induced platelet aggregation” value in data set [4] is “can block”. Moreover, the Thrombus formation result in data set [5] (1.2 mg/kg) is reported as “not”; in data set [5] (2.3 mg/kg) it was “inhibits thrombus formation”. In addition, in data set [6], the Bleeding tendency entry is reported as “demonstrated a bleeding tendency”.
